Measurements reported in US6518062B1, “Enzyme combinations for destroying proliferative cells” (priority 1996, dated 2003).
“And” between values parts separate entries of the source, which are not always exact repeats. Identical values can stand only once. Marks after values point to notes of the source that are not given here.

Key:
[1] = target: T1, Human guanylate kinase (erythrocytes) (Homo sapiens, UniProt Q16774); conditions: human erythrocyte GMPK, published values a, c, cited from earlier work; for Km: b
T1 construct: enzymatic preparations of guanylate kinase and of nucleoside diphosphate kinase of human erythrocytes; host or cells: human erythrocytes
T1 sequence (Q16774 1-197): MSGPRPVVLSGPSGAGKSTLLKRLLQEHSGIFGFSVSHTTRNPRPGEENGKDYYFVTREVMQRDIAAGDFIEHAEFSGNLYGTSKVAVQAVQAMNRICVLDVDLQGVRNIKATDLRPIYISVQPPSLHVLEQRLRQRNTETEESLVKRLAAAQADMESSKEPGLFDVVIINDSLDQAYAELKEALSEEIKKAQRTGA

[2] = target: T2, Yeast guanylate kinase (S. cerevisiae) (Saccharomyces cerevisiae, UniProt P15454); experiment: Kinetic constants of yeast guanylate kinase for GCVMP and ACVMP; type: biochemical; conditions: for Km / Vmax: yeast GMPK, 30° C., pH 7.8, 4 mM ATP
T2 sequence (P15454 1-187): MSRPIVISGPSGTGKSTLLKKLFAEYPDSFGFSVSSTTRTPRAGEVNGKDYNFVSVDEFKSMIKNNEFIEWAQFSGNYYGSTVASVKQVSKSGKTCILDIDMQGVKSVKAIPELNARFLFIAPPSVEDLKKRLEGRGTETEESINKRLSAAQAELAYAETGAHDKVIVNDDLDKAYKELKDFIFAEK
Procedure: The kinetic constants for the yeast GMP kinase purified as described in Example 3 are determined under the following enzymatic assay conditions: The yeast GMP kinase is incubated for 10 min at 30° C. in 100 μl of 50 mM Tris/HCl buffer pH 7.8 containing 4 mM ATP, 10 mM MgCl2, 100 mM KCl, 1 mg/ml BSA (bovine serum albumin) and 5-100 μ[…] (40 nCi/nmol) or 200-3200 μ[…] (40 nCi/nmol). he reaction is stopped by heating the reaction mixture for 3 min at 80° C., 50 μl of 10 mM potassium phosphate buffer pH 3.5 are added, and after centrifugation for 2 min at 10,000×g, 100 μl of supernatant are analysed by high performance liquid chromatography (HPLC) in the following system: for the calculation of the kinetic constants, the quantity of yeast GMP kinase introduced into the enzymatic reaction is adjusted so as to convert at most 10% of the substrate initially introduced. The Michaelis curves are adjusted to the experimental points with the aid of the Grafit software (Sigma). […] For substrates entering into competition, the Vmax/Km constant determines the specificity of the enzyme for these substrates. It is known by the name of “specificity constant” [A. Fersht, Enzyme Structure and Mechanism, 1985, W. H. Fréeman and Co., London].

[3] = target: T3, HSV1-TK/S. cerevisiae GMPK fusion protein (UniProt P0DTH5+P15454, V34A); experiment: Phosphorylation to diphosphate by TK-GMPK fusion protein; type: biochemical, herpes simplex virus type 1; S. cerevisiae
T3 construct: made in house; host or cells: E. coli BL21 DE3 pXL3098 (pET11a)
T3 sequence (P0DTH5+P15454 with tags, fused parts or gaps P15454:V34A): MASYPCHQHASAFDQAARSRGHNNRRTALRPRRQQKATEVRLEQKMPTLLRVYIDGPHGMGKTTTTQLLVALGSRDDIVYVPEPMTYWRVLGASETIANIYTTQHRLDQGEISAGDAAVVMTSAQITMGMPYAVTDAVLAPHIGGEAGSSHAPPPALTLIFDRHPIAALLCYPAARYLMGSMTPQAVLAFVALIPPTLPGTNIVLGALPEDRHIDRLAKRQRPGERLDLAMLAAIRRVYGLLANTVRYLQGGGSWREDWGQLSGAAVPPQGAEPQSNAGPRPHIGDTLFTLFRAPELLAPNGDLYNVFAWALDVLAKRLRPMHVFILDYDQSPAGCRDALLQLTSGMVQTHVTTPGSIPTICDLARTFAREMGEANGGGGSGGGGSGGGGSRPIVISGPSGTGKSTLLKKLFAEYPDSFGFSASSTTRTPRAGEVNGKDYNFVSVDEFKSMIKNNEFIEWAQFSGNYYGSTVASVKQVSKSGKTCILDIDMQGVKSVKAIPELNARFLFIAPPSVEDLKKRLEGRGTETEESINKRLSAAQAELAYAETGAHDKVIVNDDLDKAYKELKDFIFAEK
Procedure: (§1) The reaction is stopped by heating for 3 min at 80° C.; after centrifugation, 100 μl of incubation product are analyzed in the following system: […]

[4] = target: Mixture wild type TK/GMPK (Human herpesvirus 1, UniProt P0DTH5); type: biochemical, herpes simplex virus type 1; S. cerevisiae; conditions: Mixture wild type/GMPK 1.66/0.33 μg; GCV 100 μM
Procedure: as §1

[5] = target: T4, HSV1-TK, GMPK and bovine (liver) NDPK (Human herpesvirus 1, UniProt P0DTH5); experiment: TK-GMPK-NDPK coupling with bovine liver NDPK; type: biochemical; conditions: substrate 100 μM
T4 construct: purchased SIGMA; host or cells: bovine liver (NDPK)
Procedure: (§2) In a preferred coupling mode, the incubation is carried out in 100 μl of 50 mM Tris/HCl buffer pH 7.8, containing 1 mg/ml of BSA (bovine serum albumin), 5 mM ATP, 4 mM MgCl2, 12 mM KCl, 2 mM DTT, 600 μM EDTA, 100 μM [8-3H]-GCV (40 nCi/nmol) or 100 μM [2-3H]-ACV 40 nCi/nmol and various quantities of TK, GuK and NDPK (cf Table 2).

[6] = target: HSV1-TK and GMPK from S. cerevisiae (Human herpesvirus 1, UniProt P0DTH5); experiment: TK-GMPK coupling, % of products formed; type: biochemical, herpes simplex virus type 1; S. cerevisiae; conditions: for % of the products formed, NMP / % of the products formed, NDP: substrate 100 μM
Procedure: as §2

[7] = test system: glioma; conditions: rats having a glioma, HSV1-TK gene expressed, 150 mg/kg doses injected; cited from earlier work
[8] = target: T5, HSV1-TK, GMPK and human (erythrocyte) NDPK (Human herpesvirus 1, UniProt P0DTH5); experiment: TK-GMPK-NDPK coupling with human erythrocyte NDPK; type: biochemical; conditions: substrate 100 μM
T5 construct: purchased SIGMA; host or cells: human erythrocytes (NDPK)
Procedure: as §2

[9] = test system: Mixture 2-865:H12/GMPK; experiment: Phosphorylation to diphosphate by mixture of 2-865:H12 and GMPK; type: biochemical
Procedure: The capacity of the TK-GMPK fusion protein to convert GCV or ACV to GCVDP or ACVDP compared with a synthetic mixture of TK and GMPK is determined in the following manner:
as §1

[10] = test system: mice; conditions: mouse, in vivo, 150 mg/kg; cited from earlier work
[11] = target: T6, HSV1-TK, GMPK and baker's yeast NDPK (Human herpesvirus 1, UniProt P0DTH5); experiment: TK-GMPK-NDPK coupling with baker's yeast NDPK; type: biochemical, herpes simplex virus type 1; S. cerevisiae; conditions: substrate 100 μM
T6 construct: purchased SIGMA

[12] = TK 10.4 μg, GMPK 7.4 μg, bovine NDPK 0.5 μg, 20 min
[13] = TK 10.4 μg, GMPK 7.4 μg, bovine NDPK 5 μg, 30 min
[14] = TK 10.4 μg, GMPK 7.4 μg, 30 min
[15] = TK 10.4 μg, GMPK 7.4 μg, human NDPK 0.675 μg, 20 min
[16] = TK 10.4 μg, GMPK 7.4 μg, human NDPK 6.75 μg, 30 min
[17] = TK 1.3 μg, GMPK 2.5 μg, yeast NDPK 0.75 μg, 60 min
[18] = TK 10.4 μg, GMPK 7.4 μg, yeast NDPK 0.75 μg, 20 min
[19] = TK 10.4 μg, GMPK 7.4 μg, yeast NDPK 1.5 μg, 30 min
[20] = TK 11.7 μg, GMPK 74 μg, bovine NDPK 5 μg, 30 min
[21] = TK 11.7 μg, GMPK 74 μg, human NDPK 6.75 μg, 30 min
[22] = TK 11.7 μg, GMPK 74 μg, yeast NDPK 1.5 μg, 20 min
[23] = TK 11.7 μg, GMPK 74 μg, yeast NDPK 15 μg, 30 min

acyclovir monophosphate [ACVMP]
Km [1]: 218 µM and 209 to 753 µM and 330 µM | Vmax [1]: 1.9^a μmol/min/mg and 3.6^c μmol/min/mg | Km [2]: 280 µM | Vmax [2]: 22 µmol/min/mg

Nc1nc(O)c2ncn(COC(CO)CO)c2n1 [GCV, ganciclovir]
GCVDP formed ([3]; Fusion 2 μg, GCV 50 μM): 4900** pmmol | GCVDP formed ([3]; Fusion 2 μg, GCV 100 μM): 8270** pmmol | improvement in phosphorylation by TK-GMPK fusion protein, factor ([3]; compared with coincubation of wild-type TK enzyme and GMPK enzyme): ≤ 1.8 | GCVDP formed [4]: 4660** pmmol | % of the products formed, NDP [5, 12]: 78.4% | % of the products formed, NMP [5, 12]: 6.5% | % of the products formed, NTP [5, 12]: 12.9% | % of the products formed, NDP [5, 13]: 5.8% | % of the products formed, NMP [5, 13]: 0.6% | % of the products formed, NTP [5, 13]: 92% | phosphorylation of ganciclovir to ganciclovir diphosphate ([6]; coupling of HSV1-TK and GMPK from S. cerevisiae): 90% | % of the products formed, NMP ([6]; TK 1.3 μg, GMPK 2.5 μg, 60 min): 4.4% | % of the products formed, NDP ([6]; TK 2.6 μg, GMPK 2.5 μg, 30 min): 89.0% | % of the products formed, NMP ([6]; TK 2.6 μg, GMPK 2.5 μg, 30 min): 7.5% | % of the products formed, NDP [6, 14]: 90.8% | % of the products formed, NMP [6, 14]: 5.3% | tumour response [7]: regressions of tumour | % of the products formed, NDP [8, 15]: 90.3% | % of the products formed, NMP [8, 15]: 6.2% | % of the products formed, NTP [8, 15]: 1.5% | % of the products formed, NDP [8, 16]: 71.1% | % of the products formed, NMP [8, 16]: 2.5% | % of the products formed, NTP [8, 16]: 24% | GCVDP formed ([9]; Mixture 2-865: H12/GMPK 1.66/0.33 μg, GCV 50 μM): 5300** pmmol | toxicity [10]: highly toxic | % of the products formed, NDP [11, 17]: 13.8% | % of the products formed, NMP [11, 17]: 3.2% | % of the products formed, NDP [11, 18]: 12.6% | % of the products formed, NMP [11, 18]: 2.6% | % of the products formed, NDP [11, 19]: 6.9% | % of the products formed, NMP [11, 19]: 0.9% | % of the products formed, NTP [11, 19]: 91.1%

ganciclovir monophosphate [GCVMP]
Km [1]: 42 to 54 µM and 40 µM | Vmax [1]: 20^a μmol/min/mg | Km [2]: 18 µM | Vmax [2]: 40 µmol/min/mg | phosphorylation rate of yeast guanylate kinase relative to human enzyme ([2]; yeast vs human GMPK): twice as high

Nc1nc2c(ncn2COCCO)c(=O)[nH]1 [ACV, acyclovir]
GCVDP formed ([3]; Fusion 50 μg, ACV 20 μM): 1220** pmmol | GCVDP formed ([3]; Fusion 50 μg, ACV 50 μM): 2920** pmmol | GCVDP formed ([3]; Fusion 50 μg, ACV 50 μM Incub 1 h): 6740** pmmol | GCVDP formed ([3]; Fusion 200 μg, ACV 100 μM): 18500** pmmol | % of the products formed, NDP [5, 20]: 82.0% | % of the products formed, NMP [5, 20]: 1.7% | % of the products formed, NTP [5, 20]: 1.3% | % of the products formed, NDP ([6]; TK 11.7 μg, GMPK 74 μg, 20 min): 54% | % of the products formed, NMP ([6]; TK 11.7 μg, GMPK 74 μg, 20 min): 26.0% | % of the products formed, NDP [8, 21]: 80.0% | % of the products formed, NMP [8, 21]: 1.8% | GCVDP formed ([9]; Mixture 2-865/H12/GMPK 133/66 μg, ACV 100 μM): 17260** pmmol | GCVDP formed ([9]; Mixture 2-865: H12/GMPK 33/17 μg, ACV 20 μM): 2325** pmmol | GCVDP formed ([9]; Mixture 2-865: H12/GMPK 33/17 μg, ACV 50 μM): 3680** pmmol | GCVDP formed ([9]; Mixture 2-865: H12/GMPK 33/17 μg, ACV 50 μM Incub 1 h): 5890** pmmol | % of the products formed, NDP [11, 22]: 60.0% | % of the products formed, NMP [11, 22]: 13.0% | % of the products formed, NTP [11, 22]: 8% | % of the products formed, NDP [11, 23]: 4.6% | % of the products formed, NMP [11, 23]: 1.4% | % of the products formed, NTP [11, 23]: 81%
